Measured values published in ChEMBL document CHEMBL1129047, “(2S,3S,5R)-2-(3,5-difluorophenyl)-3,5-dimethyl-2-morpholinol: a novel antidepressant agent and selective inhibitor of norepinephrine uptake” (J Med Chem, 1996).

Columns and labels:
Mus musculus = assay: Compound was tested for the inhibition of tetrabenazine-induced sedation in mice, after peroral administration; assay type: functional; conditions: po
Rattus norvegicus [1] = species on record: Rattus norvegicus; assay: In vitro inhibition of dopamine (DA) uptake in synaptosomal preparation of rat brain; assay type: functional, organism-based
Rattus norvegicus [2] = species on record: Rattus norvegicus; assay: In vitro inhibition of norepinephrine (NE) uptake in synaptosomal preparation of rat brain; assay type: functional, organism-based
Rattus norvegicus [3] = species on record: Rattus norvegicus; assay: In vitro inhibition of serotonin uptake in synaptosomal preparation of rat brain; assay type: functional, organism-based
Rattus norvegicus [4] = assay: Compound was tested for the inhibition of tetrabenazine-induced sedation in rat, after peroral administration; failed to produce a 50%antagonism; assay type: functional; conditions: po
Rattus norvegicus [5] = assay: Compound was tested for the inhibition of tetrabenazine-induced sedation in rat, after peroral administration; assay type: functional; conditions: po

`CC(NC(C)(C)C)C(=O)c1cccc(Cl)c1` (stereo not given) [BUPROPION] showed an ED50 (Mus musculus) of 32 mg/kg, an IC50 (Rattus norvegicus [1]) of 900 nM and an IC50 (Rattus norvegicus [2]) of 2400 nM. For the same molecule, the IC50 (Rattus norvegicus [3]) was over 10000 nM and the ED50 (Rattus norvegicus [4]) was over 100 mg/kg.

Work on `CN(C)CCCN1c2ccccc2CCc2ccccc21` [IMIPRAMINE] yielded an ED50 (Mus musculus) of 9 mg/kg, an IC50 (Rattus norvegicus [1]) of over 10000 nM and an ED50 (Rattus norvegicus [5]) of 13.4 mg/kg. It also gave an IC50 (Rattus norvegicus [2]) of 40 nM and an IC50 (Rattus norvegicus [3]) of 500 nM.

For `C[C@@H]1CO[C@@](O)(c2cc(F)cc(F)c2)[C@H](C)N1` [MANIFAXINE], the ED50 (Mus musculus) was 6.2 mg/kg, the IC50 (Rattus norvegicus [1]) was 1000 nM and the ED50 (Rattus norvegicus [5]) was 1.4 mg/kg. For the same molecule, the IC50 (Rattus norvegicus [2]) was 70 nM and the IC50 (Rattus norvegicus [3]) was over 10000 nM.
